Measurements: patent US20260091143A1, “NEAR-INFRARED IMAGING AGENT AND USES THEREOF” (CASE WESTERN RESERVE UNIVERSITY, priority 2022, published 2026)
Values belong to the compound of their own block, whether it stands above or below them. Where no end group is shown, it is not given here.

Key:
[1] = system: LN-229 glioma flank tumor; experiment: In vivo fluorescent imaging of tumor signal in LN-229 flank tumor-bearing nude mice; settings: for p-value, in vivo tumor ROI mean, ICG vs SBK2-CLE-ICG: ICG 400 nmol/kg vs 300 nmol/kg SBK2-CLE-ICG; for p-value, in vivo tumor ROI mean, ICG vs SBK2-CLE-ICG / p-value, in vivo tumor ROI mean, ICG vs SBK2-ICG / p-value, in vivo tumor ROI mean, ICG vs Scram-CLE-ICG / p-value, in vivo tumor ROI mean, ICG vs Scram-ICG: Welch's t-test; for p-value, in vivo tumor ROI mean, ICG vs SBK2-ICG: ICG 400 nmol/kg vs 300 nmol/kg SBK2-ICG; for p-value, in vivo tumor ROI mean, ICG vs Scram-CLE-ICG: ICG 400 nmol/kg vs 300 nmol/kg Scram-CLE-ICG; for p-value, in vivo tumor ROI mean, ICG vs Scram-ICG: ICG 400 nmol/kg vs 300 nmol/kg Scram-ICG
Excerpt: (§1) All applicable institutional and/or NIH guidelines for the care and use of animals were followed. The Case Western Reserve University Institutional Animal Care and Use Committee reviewed and approved the animal protocols. Outbred homozygous female nude mice (Fox1^nu/Fox1^nu) were purchased from Jackson Laboratory, Bar Harbor, ME, USA. Details of the human glioblastoma LN-229 cell line have been described previously. LN-229 cells express the PTPμ biomarker and have been used in previous studies for evaluating PTPμ-targeted agents using different imaging modalities. Flank tumors were started in the right flank of mice at approximately 7 weeks of age by injecting a mixture of 2×10^6 cells and Matrigel® Matrix (Corning®, Corning Inc., Corning, NY, USA). Experiments were performed in mice 4 to 8 weeks after implanting the tumors.
(§2) The IVIS Spectrum In vivo Imaging System and Living Image analysis software, (Perkin Elmer, Hopkinton, MA, USA) were used for acquisition and analysis of mouse images. Prior to the experiment, mice were weighed, and baseline images acquired using the appropriate filter sets and the autoexposure setting. Three filter sets for excitation/emission were used: 745 nm/800 nm, 745 nm/820 nm, 745 nm/840 nm. The filter set showing highest fluorescence intensity for a fluorophore was used throughout for that dye. For ICG, 745 nm/820 nm was used and for IRDye® 800CW and Tide Fluor™ 8WS, 745 nm/800 nm was used. Agent stocks were diluted in saline or PBS to ˜100 μM and the volume needed for the desired dose of 300 nmol/kg or 400 nmol/kg calculated. Doses were loaded into polyurethane tubing and connected to a 1 mL syringe as previously described. Mice were anesthetized in an induction chamber with 2% isoflurane-oxygen and moved onto a 37° C. heated platform with a nose cone. 26-gauge veterinary catheters were placed in each tail and the preloaded tubing was connected. Agents were injected over 30 sec, catheters were removed, and animals placed in the prepared Spectrum imaging chamber. Images were acquired beginning 10 min after injecting the agents. For SBK2-CCLE-IR800 and Scram-CCLE-IR800, images were acquired every 10 min for 60 min. For the ICG-labeled and TF8WS-labeled peptides, images were acquired at 10 min, 30 min, 1 h, 2 h, 4 h, 8 h, and 24 h. At the end of the imaging time, the animals were euthanized by CO2 asphyxiation, and the tumor and other organs excised and imaged on the Spectrum.
(§3) Living Image analysis software was used for region of interest (ROI) analysis of the optical data. Images acquired for each time point consist of a fluorescent image superimposed on a photographic image. Binning was set to 1 and in vivo tumor ROIs were manually drawn based on contours visible in the black and white photograph for each timepoint. After outlining the tumor ROIs, fluorescence was measured with the built-in Spectrum function. For excised tumors, kidneys, spleen and liver, ROIs were drawn around the perimeter of the tumor or organ.
(§4) LivingImage software measures fluorescence intensity in units of radiant efficiency. For these analyses, average radiant efficiency measurements in (photons/s/cm^2/steradian)/(μW/cm^2) were used for further comparisons to account for differences in tumor and organ size. GraphPad Prism 9 was used for plots and statistical analyses. Where indicated, means for pairs of agents were compared using a two-tailed t-test with Welch's correction and statistical significance was assumed at p<0.05. Welch's correction was used to eliminate assumptions about variance between the groups being compared.

[2] = system: LN-229 glioma flank tumor; experiment: Ex vivo fluorescence of excised tumors; format: in vivo, mice; settings: 24 h, ICG-labeled agents 300 nmol/kg, ICG 400 nmol/kg, Welch's t-test
Excerpt: as §1, §2
Living Image analysis software was used for region of interest (ROI) analysis of the optical data. […] After outlining the tumor ROIs, fluorescence was measured with the built-in Spectrum function. […]
LivingImage software measures fluorescence intensity in units of radiant efficiency. […]

[3] = Ex vivo fluorescence in excised kidneys, spleen and liver; design: species or system mice
Excerpt: as §2, §3, §4

[4] = Whole-body and ventral fluorescent imaging of biodistribution and clearance; format: in vivo, mice; settings: for clearance via the renal system: mouse, in vivo
Excerpt: as §2

[5] = RP-HPLC and LC-MS/MS of IRDye 800CW-labeled agent stocks warmed to room temperature; format: physicochemical; settings: RP-HPLC
Excerpt: The hydrophilic nature and pH sensitivity of the IRDye® 800CW precluded on-resin coupling in the organic solvents and TFA-based cleavage cocktail used for ICG-labeled molecules. IRDye® 800CW maleimide was conjugated in aqueous solution following the manufacturer's recommended protocol to cysteine residues at the N-termini of the peptides and obtained at >95% purity from PolyPeptide Group. Additional LC-MS/MS analyses using an Orbitrap Elite LC-MS, purchased via an NIH shared instrument grant, 1S10RR031537-01, were performed on these agents by the Lerner Research Institute Proteomics Core at the Cleveland Clinic.
Similar to Tide Fluor™ 8WS, the hydrophilic nature of the IRDye® 800CW results in elution of the SBK2-CCLE-IR800 at around 25 min (FIG. 7). In assessing the IRDye® 800CW-labeled agents by RP-HPLC however, a second peak appeared when the SBK2-CCLE-IR800 and Scrambled-CCLE-IR800 stocks were warmed to room temperature. LC-MS/MS analysis was performed and confirmed the identity of the main peak as belonging the agents with the closed succinimide ring, while the second peak, representing around 30% of the material, and eluting slightly earlier than the main peak was identified as containing an open succinimide ring (FIG. 1).

[6] = Kidney, 24 h, ICG-labeled agents 300 nmol/kg, ICG 400 nmol/kg, Welch's t-test
[7] = Liver, 24 h, ICG-labeled agents 300 nmol/kg, ICG 400 nmol/kg, Welch's t-test
[8] = Spleen, 24 h, ICG-labeled agents 300 nmol/kg, ICG 400 nmol/kg, Welch's t-test

p-value, average radiant efficiency of excised kidney vs SBK2-CLE-ICG [3, 6]: <0.001
p-value, average radiant efficiency of excised kidney vs SBK2-ICG [3, 6]: <0.001
p-value, average radiant efficiency of excised kidney vs Scram-CLE-ICG [3, 6]: 0.008
p-value, average radiant efficiency of excised kidney vs Scram-ICG [3, 6]: 0.003
p-value, average radiant efficiency of excised liver vs SBK2-CLE-ICG [3, 7]: 0.004
p-value, average radiant efficiency of excised liver vs SBK2-ICG [3, 7]: <0.001
p-value, average radiant efficiency of excised liver vs Scram-CLE-ICG [3, 7]: <0.001
p-value, average radiant efficiency of excised liver vs Scram-ICG [3, 7]: 0.013
p-value, average radiant efficiency of excised spleen vs SBK2-CLE-ICG [3, 8]: <0.001
p-value, average radiant efficiency of excised spleen vs SBK2-ICG [3, 8]: <0.001
p-value, average radiant efficiency of excised spleen vs Scram-CLE-ICG [3, 8]: <0.001
p-value, average radiant efficiency of excised spleen vs Scram-ICG [3, 8]: 0.004
clearance compared to ICG-conjugated peptides ([4]; ICG dye 400 nmol/kg): cleared much more rapidly
Compound: CC1(C)C(/C=C/C=C/C=C/C=C2\N(CCCCS(=O)(=O)O)c3ccc4ccccc4c3C2(C)C)=[N+](CCCCS(=O)(=O)[O-])c2ccc3ccccc3c21 [ICG, indocyanine green]
p-value, in vivo tumor ROI mean, ICG vs SBK2-CLE-ICG ([1]; 10 min): <0.001
p-value, in vivo tumor ROI mean, ICG vs SBK2-ICG ([1]; 10 min): <0.001
p-value, in vivo tumor ROI mean, ICG vs Scram-CLE-ICG ([1]; 10 min): <0.001
p-value, in vivo tumor ROI mean, ICG vs Scram-ICG ([1]; 10 min): <0.001
p-value, in vivo tumor ROI mean, ICG vs SBK2-CLE-ICG ([1]; 30 min): <0.001
p-value, in vivo tumor ROI mean, ICG vs SBK2-ICG ([1]; 30 min): <0.001
p-value, in vivo tumor ROI mean, ICG vs Scram-CLE-ICG ([1]; 30 min): <0.001
p-value, in vivo tumor ROI mean, ICG vs Scram-ICG ([1]; 30 min): <0.001
p-value, in vivo tumor ROI mean, ICG vs SBK2-CLE-ICG ([1]; 24 h): <0.001
p-value, in vivo tumor ROI mean, ICG vs SBK2-ICG ([1]; 24 h): <0.001
p-value, in vivo tumor ROI mean, ICG vs Scram-CLE-ICG ([1]; 24 h): ns
p-value, in vivo tumor ROI mean, ICG vs Scram-ICG ([1]; 24 h): <0.001
in vivo tumor fluorescence produced ([1]; ICG dye 400 nmol/kg): very little in vivo tumor fluorescence
time of peak in vivo tumor signal ([1]; ICG dye 400 nmol/kg): ≤ 10 min
p-value, average radiant efficiency of excised tumor vs SBK2-CLE-ICG [2]: 0.003
p-value, average radiant efficiency of excised tumor vs SBK2-ICG [2]: <0.001
p-value, average radiant efficiency of excised tumor vs Scram-CLE-ICG [2]: 0.019
p-value, average radiant efficiency of excised tumor vs Scram-ICG [2]: 0.003

Compound: SBK2-CCLE-IR800: IRDye 800CW maleimide conjugated to N-terminal cysteine of C.GGSGGS.GEGDDFNWEQVNTLTKPTSD (SEQ ID NO: 50) ({C(IRDye 800CW maleimide)}-GGSGGSGEGDDFNWEQVNTLTKPTSD)
difference in in vivo tumor average radiant efficiency vs Scram-CCLE-IR800 ([1]; 400 nmol/kg, every ten minutes for 60 minutes): No significant differences
specific tumor labeling ([1]; 400 nmol/kg, versus Scrambled control agents): no specific tumor labeling
clearance via the renal system [4]: more rapidly than expected
second peak containing an open succinimide ring, share of the material [5]: around 30%

Compound: Scram-CCLE-IR800: IRDye 800CW maleimide conjugated to N-terminal cysteine of C.GGSGGS.GFTQPETGTDNDLWSVDNEK (SEQ ID NO: 51) ({C(IRDye 800CW maleimide)}-GGSGGSGFTQPETGTDNDLWSVDNEK)
difference in liver fluorescence vs SBK2-CCLE-IR800 ([3]; 400 nmol/kg, 60 min, liver): No significant difference
clearance via the renal system [4]: more rapidly than expected
second peak containing an open succinimide ring, share of the material [5]: around 30%
